The values that follow come from US6821995B1, “Method of treating batten disease” (priority 1999, dated 2004).

Molecules are shown by their SMILES. “And” between values parts separate entries of the source, which are not always exact repeats. Equal entries are not always repeated.

For data set [1], the system named is cells derived from infantile Batten disease (INCL or CLN1 deficient). The data set is described as follows: JC-1 mitochondrial membrane potential assay of etoposide-induced apoptosis, INCL cells. Type of data set: cell-based, human. To be noted: for percentage of cells showing J-aggregates: two patient cell lines, JC-1 stain. Here is the method: (§1) Batten disease-derived cell lines were tested for their susceptibility to apoptosis induced by etoposide and whether flupirtine had any protective effect against apoptosis. Cells derived from infantile Batten disease (INCL or CLN1 deficient), cells derived from late infantile Batten disease (LINCL or CLN2 deficient), and cells derived from juvenile Batten disease (JNCL or CLN3 deficient) received an 18 hour incubation in 30 μM etoposide with and without a pre-treatment with 20 μM flupirtine. As a control, cells were also left untreated. Cells were then stained with JC-1 fluorescent stain, which is a mitochondrial membrane potential-sensitive dye. When cells are alive, the mitochondrial potential is maintained and the mitochondria appear green. At the commitment point of apoptosis, proapoptotic agents like etopside cause a drop in mitochondrial membrane potential and the mitochondria appear yellow-red due to the formation of J-aggregates.
(§2) Cell counts were conducted for to determine the percentage of cells showing J-aggregates (TABLE 1).
(§3) The numbers of cells showing J-aggregates indicates the number of cells that are apoptosis-ready but are still viable.

The test system of data set [2] is cells derived from late infantile Batten disease (LINCL or CLN2 deficient). The data set is described as follows: JC-1 mitochondrial membrane potential assay of etoposide-induced apoptosis, LINCL cells. As to conditions: for percentage of cells showing J-aggregates: two patient cell lines, JC-1 stain. Type of data set: cell-based, human. Here is the method: as §1, §2, §3

Data set [3] relates to cells derived from juvenile Batten disease (JNCL or CLN3 deficient). The data set can be described thus: JC-1 mitochondrial membrane potential assay of etoposide-induced apoptosis, JNCL cells. Type of data set: cell-based, human. The protocol: as §1, §2, §3
In another data set the test system is stroke in rats. To be noted: rats pretreated with flupirtine; cited from earlier work.
In data set [4] the test system is retinal pigment epithelial cells and neuronal cells in culture. To be noted: cited from earlier work.
For data set [5] the following is noted: adults and children, chronically for over 12 months; cited from earlier work.
The subject of data set [6] is hNT neurons (human post-mitotic, fully-differentiated neurons). The data set is described as follows: Etoposide-induced apoptosis in differentiated hNT neurons. In kind it is cell-based. As to conditions: pre-treatment with 10 μM flupirtine, 20 μM etoposide 18 hour (FIG. 5). The protocol: Cells were visualized by fluorescent microscopy.
Finally, human post-mitotic neuronal cells were tested for thier response to flupirtine and etoposide-induced apoptosis. NT2 cells were treated with retinoic acid, then mitotic inhibitors for 6 weeks to become hNT neurons that were fully differentiated. Next, the hNT neurons received an 18 hour incubation in 20 μM etoposide with and without a pre-treatment with 10 μM flupirtine.

For data set [7], the system named is Costa Rican Batten disease-derived fibroblasts (CLN6 deficient). The data set can be described thus: Protection against etoposide-induced apoptosis, Costa Rican Batten disease cells. As to conditions: pretreatment with flupirtine (FIG. 4). Type of data set: cell-based, human. Here is the method:
Graph represents number of living cells after treatments indicated.
Cells derived from Costa Rican Batten disease (CLN6 deficient) were also tested for their response to etoposide. The CLN6 gene remains uncharacterized, though linked to chromosome 15.

Where [8] appears, read: 30 μM etoposide alone, 18 hour incubation.
[9] abbreviates: pre-treatment with 20 μM flupirtine, then 30 μM etoposide 18 hour.

Regarding `COc1cc([C@@H]2c3cc4c(cc3[C@@H](O[C@@H]3O[C@@H]5CO[C@@H](C)O[C@H]5[C@H](O)[C@H]3O)[C@H]3COC(=O)[C@H]23)OCO4)cc(OC)c1O` [Etoposide], the “yellow-red J-aggregates seen by fluorescent microscopy” value in data set [1] (etoposide alone (FIG. 3A)), in data set [2] (etoposide alone (FIG. 3B)) and in data set [3] (etoposide alone (FIG. 3C)) was “many yellow-red aggregates” in each case. The “percentage of cells showing J-aggregates” value in data set [1] (setting [8]) was 61% and 51%; in data set [2] (setting [8]), 100% and 96%; in data set [3] (two patient cell lines, 30 μM etoposide alone, 18 hour incubation, JC-1 stain), 58.4% and 64%.

`CCOC(=O)Nc1ccc(NCc2ccc(F)cc2)nc1N` [Flupirtine, 2-amino-3-ethoxycarbonylamino-6-(p-fluorobenzylamino)-pyridine]: in the data set with stroke in rats, the “area of ischemia induced by stroke” value was “reduce the area of ischemia”. Further, the effect on apoptosis result in data set [4] is “counteract apoptosis”. Further, the “yellow-red J-aggregates seen by fluorescent microscopy” value in data set [1] (flupirtine pretreated, then etoposide (FIG. 3A)) was “no aggregates”; in data set [2] (flupirtine pretreated, then etoposide (FIG. 3B)), “no aggregates”; in data set [3] (flupirtine pretreated, then etoposide (FIG. 3C)), “no aggregates”. For the same compound, the “percentage of cells showing J-aggregates” value in data set [1] (setting [9]) is 6.7% and 10.8%; in data set [2] (setting [9]), 0% and 1.8%. In addition, the “tolerability in chronic use” value in data set [5] was “without undue side effect or addiction”. Further, in data set [2] (J-aggregate counts, etoposide vs etoposide + flupirtine), the “protection afforded by Flupirtine” value is recorded as “almost complete”. Moreover, the “effect on etoposide-induced apoptosis” value in data set [6] was “completely blocked etoposide-induced apoptosis”. In addition, the “protection from etoposide-induced apoptosis (number of living cells)” value in data set [7] was “protected from etoposide-induced apoptosis”.
